The source of these data is patent publication US20240245694A1, “Tricyclic Compounds and their Uses” (Novartis AG, priority 2022, published 2024).

In assay [1] the test system is DLD1-WRN-KO cells. In words: Proliferation assay DLD1-WRN-KO (CellTiterGlo, 96 hours), off-target effects. To be noted: Homo sapiens. The class given is cell-based. From the text:
(§1) The colon carcinoma cell lines SW48 (RRID: CVCL_1724), HCT 116 (RRID: CVCL_0291) and SNU-407 (RRID: CVCL_5058) were obtained from ATCC. The WRN-knockdown insensitive colon carcinoma cell line DLD-1 (RRID: CVCL_0248) was obtained from the Korean Cell Line Bank (KCLB), and used to generate a derivative in which the endogenous WRN gene copies were knocked out by CRISPR-mediated editing using standard CRISPR methods. The resulting cell line, DLD1-WRN-KO, was used to assess potential off-target compound effects.
(§2) SW48, SNU-407 and DLD1-WRN-KO cells were cultured in growth medium composed of RPMI-1640 (Amimed Cat #1-41F22-1), 2 mM L-Glutamine (Amimed Cat #5-10K50), 10 mM HEPES (Gibco Cat #15630-056), 1 mM sodium pyruvate (Amimed Cat #5-60F00-H), 1× Penicillin-Streptomycin (Amimed Cat #4-01F00-H) and 10% fetal calf serum (Amimed Cat #2-01F30-G, Lot #LB11566P). HCT 116 cells were cultured in growth medium composed of McCoys 5A (Amimed catalog #1-18F01-1), 2 mM L-Glutamine (Amimed Cat #5-10K50), 1× Penicillin-Streptomycin (Amimed Cat #4-01F00-H) and 10% fetal calf serum (Amimed Cat #2-01F30-G, Lot #LB11566P). All cells were maintained at 37° C. in a humidified 5% CO2 incubator.
(§3) Following filtration through a Steriflip-NY 20 μm filter (Millipore Cat #SCNY00020), trypsinized cells were seeded in 100 microliters growth medium at 2′000 (SW48) or 1′500 (SNU-407, DLD1-WRN-KO, HCT 116) cells/well into white, clear-bottom 96-well plates (Costar Cat #3903). Three replicate plates were prepared for each compound treatment condition. In addition, one plate (termed “day 0”) was prepared to quantify the number of viable cells at the time of compound addition. Following overnight incubation at 37° C. in a humidified 5% CO2 atmosphere, eight 3-fold serial dilutions of a given compound stock (obtained at a concentration of 10 mM in DMSO and stored at 4° C.) were dispensed directly into each of the triplicate assay plates using a HP 300D non-contact Digital Dispenser (TECAN). The final concentration of DMSO was normalized to 0.1% in all wells. 96 hours after compound addition, cellular ATP levels as a surrogate for cell viability was assessed following addition of 50 microliters CellTiterGlo (Promega Cat #G7573) reagent and luminescence quantification on a MPLEX multi-mode plate-reader (TECAN) following a 10 minute incubation at room temperature. The number of viable cells in the “day 0” plate were quantified identically on the day of compound addition.
(§4) For data analysis, the assay background signal that was determined in wells containing medium, but no cells, was subtracted from all other data points prior to further calculations. The extent of growth inhibition and potential cell kill was assessed by comparing the ATP levels (measured using CellTiterGlo, Promega) in compound-treated cells with those present at the time of compound addition. To this end, the following conditional concept was programmatically applied in HELIOS, an in-house software applying a multi-step decision tree to arrive at optimal concentration response curve fits (Gubler et al, SLAS DOI: 10.1177/2472555217752140) to calculate % growth (% G) for each compound-treated well: % G=(T−V0)/V0))*100 when T<V0, and % G=(T−V0)/(V−V0)))*100 when T>V0, where V0 is the viability level at time of compound addition, while V and T represent vehicle-control and compound-treated viability levels, respectively, at the end of the compound incubation. 100%, 0% and −100% signify absence of growth inhibition, growth stasis, and complete cell kill, respectively. Compound concentrations leading to half-maximal growth inhibition (G150) and residual cell viability at the highest tested compound concentration (Data (cmax), expressed in percent) were routinely calculated. Data analysis can also be carried out using commercially available software designed to derive IC50 values using 4-parameter fits (e.g. GraphPad Prism, XL fit). […]

The target in assay [2] is WRN helicase (core helicase motif aa N517-P1238) (Homo sapiens (Human), UniProt Q14191). Briefly: WRN ATPase assay (ADP-Glo), DNA dependent ATP hydrolysis. The assay is classed as biochemical. As to conditions: 3 hours pre-incubation, 300 micromolar ATP, FLAP26 ssDNA; geometric means of at least 2 determinations. From the text: An ATPase assay was set up to measure the DNA dependent ATP hydrolysis activity of WRN helicase. This assay was used also to assess the inhibition properties of compounds of the invention on DNA dependent WRN ATPase activity.
WRN helicase (core helicase motif aa N517-P1238), sequence (Q14191 517-1238): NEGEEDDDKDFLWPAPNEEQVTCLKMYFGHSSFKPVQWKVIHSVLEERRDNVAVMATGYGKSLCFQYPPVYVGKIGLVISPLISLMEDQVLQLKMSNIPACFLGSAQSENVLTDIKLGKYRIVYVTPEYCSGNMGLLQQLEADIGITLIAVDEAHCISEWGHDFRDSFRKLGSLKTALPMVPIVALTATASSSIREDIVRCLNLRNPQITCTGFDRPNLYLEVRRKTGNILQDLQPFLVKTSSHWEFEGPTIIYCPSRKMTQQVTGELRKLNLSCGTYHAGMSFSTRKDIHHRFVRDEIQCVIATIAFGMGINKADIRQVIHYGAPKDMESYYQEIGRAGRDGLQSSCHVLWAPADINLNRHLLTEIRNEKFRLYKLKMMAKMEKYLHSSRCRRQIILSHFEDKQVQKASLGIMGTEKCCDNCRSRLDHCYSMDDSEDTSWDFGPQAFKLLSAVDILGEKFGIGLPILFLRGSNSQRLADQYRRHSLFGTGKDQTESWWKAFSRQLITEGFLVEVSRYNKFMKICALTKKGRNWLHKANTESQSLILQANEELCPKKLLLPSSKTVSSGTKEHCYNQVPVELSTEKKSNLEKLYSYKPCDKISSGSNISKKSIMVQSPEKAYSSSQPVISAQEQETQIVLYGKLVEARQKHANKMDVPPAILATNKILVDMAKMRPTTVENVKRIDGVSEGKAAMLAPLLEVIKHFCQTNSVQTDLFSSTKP
The core helicase motif of the WRN protein (aa N517-P1238) was produced for this assay (protein production as described above). A 45 oligonucleotide sequence called “FLAP26” as described by Brosh et al., 2009, DOI: 10.1074/jbc.M111446200 ([…]; SEQ ID NO: 2) was purchased from IDT (Integrated DNA Technologies, Leuven, Belgium) and used as single strand DNA substrate. The ADP-Glo assay kit (Promega, Madison, WI) allowing the quantification of ADP produced in ATP hydrolysis reactions was used for setting up this assay. Time course experiments were first performed in order to determine the best enzymatic assay conditions (including buffer conditions, reaction time and concentrations of protein, ATP and DNA substrates). A typical reaction consists of 10 nM WRN protein, 0.2 nM FLAP26, and 300 micromolar ATP in the following assay buffer: 30 mM Tris pH7.5, 2 mM MgCl2, 0.02% BSA, 50 mM NaCl, 0.1% pluronic F127 prepared in DNAse free water.
To evaluate the inhibition properties of compounds of the invention, serial dilutions were prepared in DMSO (10 half log dilutions from a 10 mM DMSO solution). 50 nanoliters of each concentration was pre-incubated for 3 hours in a 384 small volume assay plate (Greiner #784075) with 2.5 microliters of a 20 nM WRN helicase protein in assay buffer with 600 micromolar ATP. Control wells were included with a “high control” (no inhibition), containing DMSO with no test compound, and “low controls” (maximal inhibition), containing buffer without protein. The reaction was started by addition of 2.5 microliters of FLAP26 at 0.4 nM and incubated for 30 minutes at room temperature. The reaction was stopped with the addition of 5 microliters of the first ADP-Glo reagent and incubated for one hour to remove the excess amount of ATP. Afterwards, 10 microliters of ATP detection reagent was added and incubated for an additional hour before reading. Luminescence output was recorded using Tecan 1000 reader, with 5 minutes delay before reading. Each concentration of compound was tested in duplicates in the assay plate.
Data analysis was carried out using an in-house developed software (Novartis Helios software application, Novartis Institutes for BioMedical Research, unpublished) using the methods described by Formenko et al., 2006, DOI: 10.1016/j.cmpb.2006.01.008. Following normalization of activity values for the wells to % inhibition (% inhibition=[(high control-sample)/(high control-low control)]×100), IC50 fitting was carried out from the duplicate determinations present on each plate according to [4]. Data analysis can also be carried out using commercially available software designed to derive IC50 values using 4-parameter fits (e.g. GraphPad Prism, XL fit). The reported IC50 values are the geometrical means of at least 2 independent replicates.

Assay [3] deals with SW48 cells. Briefly: Proliferation assay SW48 (CellTiterGlo, 96 hours). The assay is classed as cell-based. To be noted: Homo sapiens.
Description: as §1, §2, §3, §4

Where only a bound is given, the exact number is not on record here.

Regarding `C[C@@H]1C[C@H](C(=O)Nc2ccc(C(F)(F)F)cc2Cl)n2c1c(N1CCN(C(=O)c3ncncc3O)CC1)c(=O)n1nc(C3=CCOCC3)nc21` [Example 13, (7R,9R)—N-(2-chloro-4-(trifluoromethyl)phenyl)-2-(3,6-dihydro-2H-pyran-4-yl)-6-(4-(5-hydroxypyrimidine-4-carbonyl)piperazin-1-yl)-7-methyl-5-oxo-5,7,8,9-tetrahydropyrrolo[1,2-c][1,2,4]triazolo[1,5-a]pyrimidine-9-carboxamide], the concentration for 50% growth inhibition (GI50) was more than 10 µM in assay [1] and 0.04 µM in assay [3]. Besides, the IC50 in assay [2] was 0.05 µM.

`Cc1ncnc(C(=O)N2CCN(c3c4n(c5nc(C6=CCOCC6)nn5c3=O)[C@H](C(=O)Nc3ccc(C(F)(F)F)nc3Cl)C[C@@H]4C)CC2)c1O` [Example 4B, (7S,9S)—N-(2-chloro-6-(trifluoromethyl)pyridin-3-yl)-2-(3,6-dihydro-2H-pyran-4-yl)-6-(4-(5-hydroxy-6-methylpyrimidine-4-carbonyl)piperazin-1-yl)-7-methyl-5-oxo-5,7,8,9-tetrahydropyrrolo[1,2-c][1,2,4]triazolo[1,5-a]pyrimidine-9-carboxamide]: the GI50 in assay [1] was more than 10 µM; in assay [3] it was 6 µM. The same compound returned a 50% inhibitory concentration (IC50) in assay [2] of 9 µM.

On to `Cc1cc(C(F)(F)F)ccc1NC(=O)[C@H]1C[C@@H](C)c2c(N3CCN(C(=O)c4nccc(F)c4O)CC3)c(=O)n3nc(C4=CCOCC4)nc3n21` [Example 16, (7R,9R)-2-(3,6-dihydro-2H-pyran-4-yl)-6-(4-(4-fluoro-3-hydroxypicolinoyl)piperazin-1-yl)-7-methyl-N-(2-methyl-4-(trifluoromethyl)phenyl)-5-oxo-5,7,8,9-tetrahydropyrrolo[1,2-c][1,2,4]triazolo[1,5-a]pyrimidine-9-carboxamide], for which the GI50 was more than 10 µM in assay [1] and 0.01 µM in assay [3]. In addition, in assay [2], the IC50 stood at 0.04 µM.

`C[C@H]1C[C@@H](C(=O)Nc2ccc(C(F)(F)F)cc2Cl)n2c1c(N1CCN(C(=O)c3nccc(F)c3O)CC1)c(=O)n1nc(C3=CCOCC3)nc21` [Example 6B, (7S,9S)—N-(2-chloro-4-(trifluoromethyl)phenyl)-2-(3,6-dihydro-2H-pyran-4-yl)-6-(4-(4-fluoro-3-hydroxypicolinoyl)piperazin-1-yl)-7-methyl-5-oxo-5,7,8,9-tetrahydropyrrolo[1,2-c][1,2,4]triazolo[1,5-a]pyrimidine-9-carboxamide]: the GI50 in assay [1] was more than 10 µM; in assay [3], 3 µM. The IC50 in assay [2] was 2 µM.

For `Cc1ncnc(C(=O)N2CCN(c3c4n(c5nc(N6CCOCC6)nn5c3=O)[C@@H](C(=O)Nc3ccc(C(F)(F)F)cc3Cl)C[C@@H]4C)CC2)c1O` [Example 2C, (7S,9R)—N-(2-chloro-4-(trifluoromethyl)phenyl)-6-(4-(5-hydroxy-6-methylpyrimidine-4-carbonyl)piperazin-1-yl)-7-methyl-2-morpholino-5-oxo-5,7,8,9-tetrahydropyrrolo[1,2-c][1,2,4]triazolo[1,5-a]pyrimidine-9-carboxamide], the concentration for 50% growth inhibition (GI50) in assay [1] is more than 10 µM; in assay [3], 1 µM. In addition, the IC50 in assay [2] turned out to be 0.1 µM.

As for `C[C@@H]1C[C@H](C(=O)Nc2ccc(C(F)(F)F)cc2Cl)n2c1c(N1CCN(C(=O)c3c(O)ccc4nccn34)CC1)c(=O)n1nc(C3=CCOCC3)nc21` [Example 9, (7R,9R)—N-(2-chloro-4-(trifluoromethyl)phenyl)-2-(3,6-dihydro-2H-pyran-4-yl)-6-(4-(6-hydroxyimidazo[1,2-a]pyridine-5-carbonyl)piperazin-1-yl)-7-methyl-5-oxo-5,7,8,9-tetrahydropyrrolo[1,2-c][1,2,4]triazolo[1,5-a]pyrimidine-9-carboxamide], the 50% growth inhibitory concentration (GI50) is more than 10 µM in assay [1] and 0.06 µM in assay [3]. In assay [2], this compound yielded a half-maximal inhibitory concentration (IC50) of 0.05 µM.

With `Cc1cc(C(F)(F)F)ccc1NC(=O)[C@H]1CCc2c(N3CCN(C(=O)c4nccc(Cl)c4O)CC3)c(=O)n3nc(C4=CCOCC4)nc3n21` [Example 19A, (R)-6-(4-(4-chloro-3-hydroxypicolinoyl)piperazin-1-yl)-2-(3,6-dihydro-2H-pyran-4-yl)-N-(2-methyl-4-(trifluoromethyl)phenyl)-5-oxo-5,7,8,9-tetrahydropyrrolo[1,2-c][1,2,4]triazolo[1,5-a]pyrimidine-9-carboxamide], the 50% growth inhibitory concentration (GI50) in assay [1] was more than 10 µM; in assay [3] it was 0.2 µM. Also, the IC50 in assay [2] came out at 0.04 µM.

With `Cc1ncnc(C(=O)N2CCN(c3c4n(c5nc(N6CCOCC6)nn5c3=O)[C@@H](C(=O)Nc3ccc(C(F)(F)F)cc3Cl)C[C@H]4C)CC2)c1O` [Example 2A, (7R,9R)—N-(2-chloro-4-(trifluoromethyl)phenyl)-6-(4-(5-hydroxy-6-methylpyrimidine-4-carbonyl)piperazin-1-yl)-7-methyl-2-morpholino-5-oxo-5,7,8,9-tetrahydropyrrolo[1,2-c][1,2,4]triazolo[1,5-a]pyrimidine-9-carboxamide], the GI50 in assay [1] is more than 10 µM; in assay [3], 0.04 µM. This compound displayed an IC50 in assay [2] of 0.02 µM.
